# Legend:
# [1] = test system: CXF2061 organoid, colon cancer; assay: 3D clonogenic assay in patient derived organoids; format: cell-based, human
# Procedure: (§1) Five tumor cell lines (4T1.2, A549, EMT6, NCI-H460, and HT29) were treated with a range of paclitaxel or 5-FU concentrations in the presence of dimethlylsulfoxide (DMSO), 5 μM Compound 1, or 20 μM Compound 1. Cells were imaged 4 days after treatment and percent confluence was assessed by image quantification. EC50 values for cell confluence were used to assess chemotherapy potency. Eleven patient-derived tumor organoids (MAXFTN449, MAXFTN2990, PAXF1657, PAXF2131, CXF1256, CXF2129, CXF2061, LXFE2478, LXFE690, LXFA677, LXFA644) were seeded in a 3D matrix and treated with a range of paclitaxel, 5-FU, SN38, Gemcitabine, oxaliplatin, and carboplatin concentrations in the presence of DMSO, 5 μM Compound 1, or 20 μM Compound 1. After 8 to 13 days in culture, colonies were stained, imaged, and counted. A dose response curve was generated for chemotherapy alone or chemotherapy in combination with 5 or 20 μM Compound 1. Combination activity was defined as a percentage of the area under the chemotherapy dose response curve (cAUC) for Compound 1 combination groups compared to the cAUC of chemotherapy alone.
# (§2) For combination experiments, working stock solutions of all compounds were prepared in DMSO at concentrations of 660-fold the highest test concentration used and stored at −20° C. Platin compounds were prepared freshly on each treatment day. On each day of an experiment, an aliquot of the working stock solutions was used and stored at room temperature prior to and during treatment. First, 1:2 dilutions of 660-fold concentrated working stocks were prepared in DMSO (in case of monotherapy controls), or equal amounts of the compound working stocks were mixed (in case of drug combinations). Then, different dilutions of these 330-fold concentrated solutions were prepared in DMSO to give an 8×2 matrix combination layout with conditions. The DMSO dilutions were further diluted […] into cell culture medium (IMDM, supplemented with 20% (v/v) fetal bovine serum, and 50 μg/mL gentamicin) in an intermediate dilution plate. Finally, 10 μL taken from the intermediate dilution plate were transferred to 140 μL of cells and medium per well of the final assay plate. Thus, the DMSO dilutions used for the mono- and the combination-treatment were diluted 1:660, and the DMSO concentration in the assay was […].
# (§3) Tumors were passaged as subcutaneous xenografts in NMRI nu/nu mice. At a tumor volume of 400 to 1000 mm^3, tumor-bearing mice were euthanized, and tumors were collected under sterile conditions without delay. Tumors were mechanically disaggregated and subsequently incubated with an enzyme cocktail consisting of collagenase type IV (41 U/mL), DNase I (125 U/mL), hyaluronidase type III (100 U/mL), and dispase II (1 U/mL) in RPMI 1640 medium at 37° C. for 60 to 120 minutes. Cells were passed through sieves of 100 μm and 40 μm mesh size, and washed with RPMI 1640 medium. The percentage of viable cells was determined in a Neubauer-hemocytometer using trypan blue exclusion. Aliquots of the cells were frozen down and stored in liquid nitrogen vapor phase. On each day of an experiment, a frozen aliquot of tumor cells was thawed and used for preparation of assay plates.
# (§4) The clonogenic assay was carried out in a 96 well plate format using ultra low attachment plates. For each test, plates were prepared as follows: each test well contained a layer of semi-solid medium with tumor cells (50 μL), and a second layer of medium supernatant with or without test compound (100 μL). The cell layer consisted of […] to 12.5×10^3 tumor cells per well, which were seeded in 50 μL/well cell culture medium (IMDM, supplemented with 20% (v/v) fetal bovine serum, 50 μg/mL gentamicin, and 0.4% (w/v) agar). After 24 hours, the soft-agar layer was covered with 90 μL of the same culture medium without agar, and 10 μL of control medium or test compound after serial dilution in DMSO for the duration of the experiment (continuous exposure, 100 μL drug overlay).
# [2] = test system: CXF1256 organoid, colon cancer; assay: 3D clonogenic assay in patient derived organoids; format: cell-based, human
# Procedure: as §1, §2, §3, §4
# [3] = test system: CXF2129 organoid, colon cancer; assay: 3D clonogenic assay in patient derived organoids; format: cell-based, human
# Procedure: as §1, §2, §3, §4
# [4] = test system: MAXFTN2990 organoid, breast cancer (triple negative); assay: 3D clonogenic assay in patient derived organoids; format: cell-based, human; conditions: for Combination activity 5 μM Compound 1 (cAUC % reduction): chemotherapy dose titration + 5 μM Compound 1 vs chemotherapy alone; for Combination activity 20 μM Compound 1 (cAUC % reduction): chemotherapy dose titration + 20 μM Compound 1 vs chemotherapy alone
# Procedure: as §1, §2, §3, §4
# [5] = test system: MAXFTN449 organoid, breast cancer (triple negative); assay: 3D clonogenic assay in patient derived organoids; format: cell-based, human; conditions: for Combination activity 5 μM Compound 1 (cAUC % reduction): chemotherapy dose titration + 5 μM Compound 1 vs chemotherapy alone; for Combination activity 20 μM Compound 1 (cAUC % reduction): chemotherapy dose titration + 20 μM Compound 1 vs chemotherapy alone
# Procedure: as §1, §2, §3, §4
# EMT6 cell line = assay: 2D cell line viability assay (cell confluence); format: cell-based, murine; conditions: Mus musculus, EMT6, 96 h, 4 days
# Source text: (§5) FIGS. 4A-4E illustrate the effects of Compound 1 on the Potency of Paclitaxel in a 2D Cell Line Viability Assay. […] Data points indicate mean and Standard Deviation of 2 biological replicates. Graphs are representative of at least 2 independent experiments. […] Abbreviations: DMSO, dimethylsulfoxide.
# 4T1.2 cell line = assay: 2D cell line viability assay (cell confluence); format: cell-based, murine; conditions: Mus musculus, 4T1.2, 96 h
# Source text: as §5
# NCI-H460 cell line = assay: 2D cell line viability assay (cell confluence); format: cell-based; conditions: Homo sapiens, NCI-H460, 96 h, 4 days
# Source text: as §5
# A549 cell line = assay: 2D cell line viability assay (cell confluence); format: cell-based; conditions: Homo sapiens, A549, 96 h, 4 days
# Source text: as §5
# HT29 cell line = assay: 2D cell line viability assay (cell confluence); format: cell-based; conditions: Homo sapiens, HT-29, 96 h, 4 days
# Source text: as §5
# [6] = test system: LXFE690 organoid, NSCLC (squamous subtype); assay: 3D clonogenic assay in patient derived organoids; format: cell-based, human; conditions: for Combination activity 20 μM Compound 1 (cAUC % reduction): chemotherapy dose titration + 20 μM Compound 1 vs chemotherapy alone
# Procedure: as §1, §2, §3, §4
# [7] = test system: PAXF1657 organoid, pancreatic cancer; assay: 3D clonogenic assay in patient derived organoids; format: cell-based, human; conditions: for Combination activity 20 μM Compound 1 (cAUC % reduction): chemotherapy dose titration + 20 μM Compound 1 vs chemotherapy alone
# Procedure: as §1, §2, §3, §4
# [8] = test system: LXFE2478 organoid, NSCLC (squamous subtype); assay: 3D clonogenic assay in patient derived organoids; format: cell-based, human; conditions: for Combination activity 20 μM Compound 1 (cAUC % reduction): chemotherapy dose titration + 20 μM Compound 1 vs chemotherapy alone
# Procedure: as §1, §2, §3, §4
# [9] = test system: PAXF2131 organoid, Pancreatic cancer; assay: 3D clonogenic assay in patient derived organoids; format: cell-based, human; conditions: for Combination activity 20 μM Compound 1 (cAUC % reduction): chemotherapy dose titration + 20 μM Compound 1 vs chemotherapy alone
# Procedure: as §1, §2, §3, §4
# [10] = chemotherapy dose titration + 5 μM Compound 1 vs chemotherapy alone
# [11] = chemotherapy dose titration + 20 μM Compound 1 vs chemotherapy alone
# [12] = in the presence of 5 μM Compound 1
# [13] = in the presence of 20 μM Compound 1
smiles,measurement,setting,value
CCc1c2c(nc3ccc(O)cc13)-c1cc3c(c(=O)n1C2)COC(=O)[C@]3(O)CC [SN38],Combination activity 5 μM Compound 1 (cAUC % reduction),[1]; [10],22%
same,Combination activity 20 μM Compound 1 (cAUC % reduction),[1]; [11],26%
same,Combination activity 5 μM Compound 1 (cAUC % reduction),[2]; [10],90%
same,Combination activity 20 μM Compound 1 (cAUC % reduction),[2]; [11],91%
same,Combination activity 5 μM Compound 1 (cAUC % reduction),[3]; [10],44%
same,Combination activity 20 μM Compound 1 (cAUC % reduction),[3]; [11],33%
same,Combination activity 5 μM Compound 1 (cAUC % reduction),[4],57%
same,Combination activity 20 μM Compound 1 (cAUC % reduction),[4],74%
same,Combination activity 5 μM Compound 1 (cAUC % reduction),[5],58%
same,Combination activity 20 μM Compound 1 (cAUC % reduction),[5],46%
"CC(=O)O[C@H]1C(=O)[C@@]2(C)[C@H]([C@H](OC(=O)c3ccccc3)[C@]3(O)C[C@H](OC(=O)[C@H](O)[C@@H](NC(=O)c4ccccc4)c4ccccc4)C(C)=C1C3(C)C)[C@]1(OC(C)=O)CO[C@@H]1C[C@@H]2O (relative stereo) [Paclitaxel, (1S,2S,3R,4S,7R,9S,10S,12R,15S)-4,12-diacetoxy-15-{[(2R,3S)-3-(benzoylamino)-2-hydroxy-3-phenylpropanoyl]oxy}-1,9-dihydroxy-10,14,17,17-tetramethyl-11-oxo-6-oxatetracyclo[11.3.1.0˜3,10˜0.0˜4,7˜]heptadec-13-en-2-yl rel-benzoate]",EC50,EMT6 cell line; in the absence of Compound 1,19 nM
same,EC50,EMT6 cell line; [12],5.5 nM
same,EC50,EMT6 cell line; [13],1.9 nM
same,EC50,"4T1.2 cell line; 4 days after treatment, in the absence of Compound 1",48 nM
same,EC50,"4T1.2 cell line; 4 days, in the presence of 5 μM Compound 1",16 nM
same,EC50,"4T1.2 cell line; 4 days, in the presence of 20 μM Compound 1",3.4 nM
same,EC50,NCI-H460 cell line; in the absence of Compound 1,6.5 nM
same,EC50,NCI-H460 cell line; [12],2.9 nM
same,EC50,NCI-H460 cell line; [13],2.3 nM
same,EC50,A549 cell line; in the absence of Compound 1,1.6 nM
same,EC50,A549 cell line; [12],1.6 nM
same,EC50,A549 cell line; [13],1 nM
same,EC50,HT29 cell line; in the absence of Compound 1,1.8 nM
same,EC50,HT29 cell line; [12],1.9 nM
same,EC50,HT29 cell line; [13],1.8 nM
same,Combination activity 5 μM Compound 1 (cAUC % reduction),[6]; [10],87%
same,Combination activity 20 μM Compound 1 (cAUC % reduction),[6],94%
same,Combination activity 20 μM Compound 1 (cAUC % reduction),[6]; listed as paclitaxel,94%
same,Combination activity 5 μM Compound 1 (cAUC % reduction),[7]; [10],50%
same,Combination activity 20 μM Compound 1 (cAUC % reduction),[7],64%
same,Combination activity 20 μM Compound 1 (cAUC % reduction),[7]; listed as paclitaxel,64%
same,Combination activity 5 μM Compound 1 (cAUC % reduction),[8]; [10],46%
same,Combination activity 20 μM Compound 1 (cAUC % reduction),[8],45%
same,Combination activity 20 μM Compound 1 (cAUC % reduction),[8]; listed as paclitaxel,45%
same,Combination activity 5 μM Compound 1 (cAUC % reduction),[9]; [10],58%
same,Combination activity 20 μM Compound 1 (cAUC % reduction),[9],71%
same,Combination activity 20 μM Compound 1 (cAUC % reduction),[9]; listed as paclitaxel,71%
same,Combination activity 5 μM Compound 1 (cAUC % reduction),[4],63%
same,Combination activity 20 μM Compound 1 (cAUC % reduction),[4],77%
same,Combination activity 20 μM Compound 1 (cAUC % reduction),[4]; listed as paclitaxel,77%
same,Combination activity 5 μM Compound 1 (cAUC % reduction),[5],57%
same,Combination activity 20 μM Compound 1 (cAUC % reduction),[5],42%
same,Combination activity 20 μM Compound 1 (cAUC % reduction),[5]; listed as paclitaxel,42%

# — US20240165112A1, “THERAPY FOR THE TREATMENT OF CANCER” (Bristol-Myers Squibb Company, priority 2022, published 2024)
